Reference: patent publication US20240368181A1, “QUINOXALINE DERIVATIVES AND USES THEREOF” (Black Diamond Therapeutics, Inc., priority 2021, published 2024)

Legend:
Type in all cases: cell-based
[1] = test system: RT-112 (FGFR3-Tacc3 fusion) cells; experiment: Cell proliferation assay (CellTiterGlo), RT-112 cells; details: RT112 cells, inhibition of cell growth, intracellular ATP (CellTiterGlo)
Source text: (§1) The following is a non-limiting example that describes a cell proliferation assay used to determine the biological activity of the compounds of the present disclosure. More specifically, the assay as used to assess the ability of the compounds to inhibit cell proliferation.
(§2) Briefly, SNU-16 (FGFR2-amplification) cells, were resuspended at 18,520c/ml mL in RPMI containing 10% Heat Inactivated FBS, 1% L-glutamine and dispensed in duplicate (463c/well) into 384 well plates. UM-UC-14 (FGFR3-S249C) cells were resuspended at 40.000c/ml mL in RPMI containing 10% Heat Inactivated FBS, 1% L-glutamine and dispensed in duplicate (1000c/well) into 384 well plates. DMS-114 (FGFR1 overexpression) cells and were resuspended at 40,000c/ml mL in RPMI containing 10% Heat Inactivated FBS, 1% L-glutamine and dispensed in duplicate (1000c/well) into 384 well plates. RT-112 (FGFR3-Tacc3 fusion) cells were resuspended at 40,000c/ml mL in RPMI containing 10% Heat Inactivated FBS, 1% L-glutamine and dispensed in duplicate (1000c/well) into 384 well plates. To determine the effect of the compounds of the present disclosure on cell proliferation, SNU-16, UM-UC-14, DMS-114 and RT112 cells were incubated for 72 hours in the presence of vehicle control (DMSO) or a compound of the present disclosure at varying concentrations. Inhibition of cell growth was subsequently determined by luminescent quantification (Envision by Perkin Elmer) of intracellular ATP content using CellTiterGlo (Promega), according to the protocol provided by the manufacturer. To determine the IC50 values, the vehicle-treated cells were normalized as viable cells and analyzed using the CDD Vault software (Collaborative Drug Discovery, Burlingame, CA).

[2] = test system: SNU-16 (FGFR2-amplification) cells; experiment: Cell proliferation assay (CellTiterGlo), SNU-16 cells; details: inhibition of cell growth, intracellular ATP (CellTiterGlo)
Source text: as §1, §2

[3] = test system: DMS-114 (FGFR1 overexpression) cells; experiment: Cell proliferation assay (CellTiterGlo), DMS-114 cells; details: 72 hours, inhibition of cell growth, intracellular ATP (CellTiterGlo)
Source text: as §1, §2

[4] = test system: UM-UC-14 (FGFR3-S249C) cells; experiment: Cell proliferation assay (CellTiterGlo), UM-UC-14 cells; details: UMUC14, 72 h, inhibition of cell growth, intracellular ATP (CellTiterGlo)
Source text: as §1, §2

[5] = test system: SNU-16 (FGFR2-amplification) cells; experiment: cell proliferation assay (CellTiterGlo), SNU-16 cells; details: Homo sapiens, 72 hours
Outline: (§3)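 Suspended cells plated; DMSO or compound dose range added; intracellular ATP read by CellTiterGlo luminescence; IC50 vs vehicle-normalized viability.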

[6] = test system: UM-UC-14 (FGFR3-S249C) cells; experiment: cell proliferation assay (CellTiterGlo), UM-UC-14 cells; details: UMUC14, 72 h
Outline: as §3

[7] = test system: RT-112 (FGFR3-Tacc3 fusion) cells; experiment: cell proliferation assay (CellTiterGlo), RT-112 cells; details: Homo sapiens, RT-112, RT112 cells, 72 hours
Outline: as §3

[8] = test system: DMS-114 (FGFR1 overexpression) cells; experiment: cell proliferation assay (CellTiterGlo), DMS-114 cells; details: Homo sapiens, DMS-114, 72 h
Outline: as §3

Work on `Cc1nc2ccc(Oc3ccc4ncc(-c5cnn(CC6CCN(C)C(=O)C6)c5)nc4c3Cl)cc2[nH]1` (stereo not shown) [Compound 20] yielded an IC50 ([1]; Homo sapiens, RT-112, 72 h) of 0.02 to 0.1 µM, an IC50 ([2]; Homo sapiens, SNU-16, 72 h) of 0.02 to 0.1 µM and an IC50 ([3]; Homo sapiens) of at least 0.4 µM. For the same compound, the IC50 [4] was 0.02 to 0.1 µM.

`Cc1nc2ccc(Oc3ccc4ncc(-c5cnn(C6CCNCC6)c5)nc4c3Cl)cc2[nH]1` [Compound 21] showed an IC50 ([1]; Homo sapiens, RT-112, 72 h) of under 0.02 µM, an IC50 ([2]; Homo sapiens, SNU-16, 72 h) of 0.02 to 0.1 µM and an IC50 ([3]; Homo sapiens) of 0.1 to 0.4 µM. It also gave an IC50 [4] of 0.02 to 0.1 µM.

For `Cc1nc2ccc(Oc3ccc4ncc(-c5cnn(CC(O)CO)c5)nc4c3Cl)cc2[nH]1` (stereo not shown) [Compound 22], the IC50 ([1]; Homo sapiens, RT-112, 72 h) was 0.02 to 0.1 µM, the IC50 ([2]; Homo sapiens, SNU-16, 72 h) was 0.02 to 0.1 µM and the IC50 ([3]; Homo sapiens) was at least 0.4 µM. For the same compound, the IC50 [4] was 0.1 to 0.4 µM.

In the case of `Cc1nc2ccc(Oc3ccc4ncc(-c5cnn(CC6CCN(CCO)CC6)c5)nc4c3Cl)cc2[nH]1` [Compound 23], the IC50 ([1]; Homo sapiens, RT-112, 72 h) is reported as under 0.02 µM, the IC50 ([2]; Homo sapiens, SNU-16, 72 h) is reported as under 0.02 µM and the IC50 ([3]; Homo sapiens) is reported as 0.1 to 0.4 µM. It also gave an IC50 [4] of under 0.02 µM.

`Cc1nc2ccc(Oc3ccc4ncc(-c5cnn(CC6CCN(C(C)C)CC6)c5)nc4c3Cl)cc2[nH]1` [Compound 24] was tested, and the IC50 ([1]; Homo sapiens, RT-112, 72 h) was under 0.02 µM, the IC50 ([2]; Homo sapiens, SNU-16, 72 h) was under 0.02 µM and the IC50 ([3]; Homo sapiens) was 0.1 to 0.4 µM. The IC50 [4] was under 0.02 µM.

Work on `CCC(=O)N1CCC(Cn2cc(-c3cnc4ccc(Oc5ccc6nc(C)[nH]c6c5)c(Cl)c4n3)cn2)CC1` [Compound 25] yielded an IC50 ([1]; Homo sapiens, RT-112, 72 h) of under 0.02 µM, an IC50 ([2]; Homo sapiens, SNU-16, 72 h) of under 0.02 µM and an IC50 ([3]; Homo sapiens) of 0.1 to 0.4 µM. For the same compound, the IC50 [4] was 0.02 to 0.1 µM.

Work on `Cc1nc2ccc(Oc3ccc4ncc(-c5cnn(C6CCN(C)C6)c5)nc4c3Cl)cc2[nH]1` (stereo not shown) [Compound 26] yielded an IC50 ([1]; Homo sapiens, RT-112, 72 h) of under 0.02 µM, an IC50 ([2]; Homo sapiens, SNU-16, 72 h) of under 0.02 µM and an IC50 ([3]; Homo sapiens) of 0.1 to 0.4 µM. The IC50 [4] was 0.02 to 0.1 µM.

Work on `Cc1nc2ccc(Oc3ccc4ncc(-c5cnn(C6CCNC6)c5)nc4c3Cl)cc2[nH]1` (stereo not shown) [Compound 27] yielded an IC50 ([1]; Homo sapiens, RT-112, 72 h) of 0.02 to 0.1 µM, an IC50 ([2]; Homo sapiens, SNU-16, 72 h) of 0.1 to 0.4 µM and an IC50 ([3]; Homo sapiens) of at least 0.4 µM. The IC50 [4] was 0.02 to 0.1 µM.

`Cc1nc2ccc(Oc3ccc4ncc(-c5cnn(CC6CCN(S(=O)(=O)CC#N)CC6)c5)nc4c3Cl)cc2[nH]1` [Compound 28] showed an IC50 ([1]; Homo sapiens, RT-112, 72 h) of 0.02 to 0.1 µM, an IC50 ([2]; Homo sapiens, SNU-16, 72 h) of 0.02 to 0.1 µM and an IC50 ([3]; Homo sapiens) of 0.1 to 0.4 µM. For the same compound, the IC50 [4] was 0.02 to 0.1 µM.

`CC(=O)N1CCC(Cn2cc(-c3cnc4ccc(Oc5ccc6nc(C)[nH]c6c5)c(Cl)c4n3)cn2)CC1` [Compound 34] gave an IC50 ([1]; Homo sapiens, RT-112, 72 h) of under 0.02 µM, an IC50 ([3]; Homo sapiens) of at least 0.4 µM and an IC50 [4] of 0.02 to 0.1 µM.

`Cc1nc2ccc(Oc3ccc4ncc(-c5cnn(CC6CCNCC6)c5)nc4c3Cl)cc2[nH]1` [Compound 47] was tested, and the IC50 ([1]; 72 hours) was 0.02 to 0.1 µM, the IC50 ([2]; 72 hours) was 0.1 to 0.4 µM and the IC50 [3] was at least 0.4 µM.

`C=CC(=O)N1CCC(CCn2cc(-c3cnc4ccc(Oc5ccc6nc(C)[nH]c6c5)cc4n3)cn2)CC1` [Compound 54] gave an IC50 ([1]; Homo sapiens, RT-112, 72 h) of 0.1 to 0.4 µM, an IC50 ([3]; Homo sapiens) of at least 0.4 µM and an IC50 [4] of 0.1 to 0.4 µM.

Compound `C=CC(=O)N1CCC(Cn2cc(-c3cnc4ccc(Oc5ccc6nc(C)[nH]c6c5)cc4n3)cn2)CC1` [Compound 56] has an IC50 ([1]; Homo sapiens, RT-112, 72 h) of 0.1 to 0.4 µM, an IC50 ([3]; Homo sapiens) of at least 0.4 µM and an IC50 [4] of at least 0.4 µM.

In the case of `Cc1nc2ccc(Oc3ccc4ncc(-c5cnn(CC6CCN(C)CC6)c5)nc4c3)cc2[nH]1` [Compound 57], the IC50 ([1]; Homo sapiens, RT-112, 72 h) is reported as at least 0.4 µM, the IC50 ([3]; Homo sapiens) is reported as at least 0.4 µM and the IC50 [4] is reported as 0.1 to 0.4 µM.

Compound `Cc1nc2ccc(Oc3ccc4ncc(-c5cnn(CC6CCOCC6)c5)nc4c3Cl)cc2[nH]1` [Compound 58] has an IC50 ([1]; Homo sapiens, RT-112, 72 h) of 0.02 to 0.1 µM, an IC50 ([3]; Homo sapiens) of 0.1 to 0.4 µM and an IC50 [4] of 0.02 to 0.1 µM.

Compound `Cc1nc2ccc(Oc3ccc4ncc(-c5cnn(CC6CCNCC6(F)F)c5)nc4c3Cl)cc2[nH]1` (stereo not shown) [Compound 386] has an IC50 [5] of 0.02 to 0.1 µM, an IC50 [6] of 0.02 to 0.1 µM and an IC50 [7] of 0.02 to 0.1 µM. For the same compound, the IC50 [8] was at least 0.4 µM.

In the case of `Cc1nc2ccc(Oc3ccc4ncc(-c5cnn(CC6CC(F)(F)C6)c5)nc4c3Cl)cc2[nH]1` [Compound 387], the IC50 [5] is reported as 0.02 to 0.1 µM, the IC50 [6] is reported as 0.02 to 0.1 µM and the IC50 [7] is reported as 0.02 to 0.1 µM. For the same compound, the IC50 [8] was at least 0.4 µM.

`CCOC(Cn1cc(-c2cnc3ccc(Oc4ccc5nc(C)[nH]c5c4)c(Cl)c3n2)cn1)OCC` [Compound 388] gave an IC50 [5] of 0.1 to 0.4 µM, an IC50 [6] of 0.1 to 0.4 µM and an IC50 [7] of 0.1 to 0.4 µM. The IC50 [8] was at least 0.4 µM.

`Cc1nc2ccc(Oc3ccc4ncc(-c5cnn(CC6OCCCO6)c5)nc4c3Cl)cc2[nH]1` [Compound 389] gave an IC50 [5] of 0.02 to 0.1 µM, an IC50 [6] of 0.1 to 0.4 µM and an IC50 [7] of 0.02 to 0.1 µM. For the same compound, the IC50 [8] was at least 0.4 µM.
